Source: article PMC12460146, “Impact of metabolic enzyme activity variability on dabrafenib disposition” (Frontiers in Pharmacology, 2025)
“Also recorded” adds a separate entry of the source.

Key:
CYP3A4.28 = biological target: T1, CYP3A4.28 (Homo sapiens, UniProt P08684, L22V); assay: In vitro enzyme kinetics assay using CYP3A4 baculosomes: CYP3A4.28; assay type: in vitro ADME
T1 construct: made in house; host or cells: insect cells (baculovirus, pFastBac-Dual)
Protocol: (§1) Recombinant CYP3A4 and CYPb5 proteins were prepared according to our previously established protocol ([Fang et al., 2017]). Briefly, dual expression vectors (pFastBac-Dual) were used to construct CYP3A4-CYPOR and CYPb5-CYPOR expression plasmids. Subsequently, the corresponding baculosomes were harvested by ultracentrifugation using the baculovirus-insect cell expression system, and the target proteins were confirmed. Protein expression levels for each type were qualitatively and quantitatively assessed by Western blotting and BCA assay, respectively.
(§2) The 200 µL incubation system comprised 0.1 M Tris-HCl, 5 µg CYP3A4.1 or other CYP3A4 variants, 5 µg CYPb5, 1 mM NADPH, and dabrafenib. A dabrafenib concentration of 10 µM was used to evaluate variant specific metabolic activity. Michaelis-Menten kinetics were assessed using dabrafenib concentrations of 5, 10, 20, 50, 100, and 250 µM. Subsequent processing steps followed the procedures outlined in Section 2.3.

CYP3A4.20 = biological target: T2, CYP3A4.20 (Homo sapiens, UniProt P08684); assay: In vitro enzyme kinetics assay using CYP3A4 baculosomes: CYP3A4.20; assay type: in vitro ADME
T2 construct: made in house; host or cells: insect cells (baculovirus, pFastBac-Dual)
T2 sequence (P08684 with tags, fused parts or gaps limits assumed): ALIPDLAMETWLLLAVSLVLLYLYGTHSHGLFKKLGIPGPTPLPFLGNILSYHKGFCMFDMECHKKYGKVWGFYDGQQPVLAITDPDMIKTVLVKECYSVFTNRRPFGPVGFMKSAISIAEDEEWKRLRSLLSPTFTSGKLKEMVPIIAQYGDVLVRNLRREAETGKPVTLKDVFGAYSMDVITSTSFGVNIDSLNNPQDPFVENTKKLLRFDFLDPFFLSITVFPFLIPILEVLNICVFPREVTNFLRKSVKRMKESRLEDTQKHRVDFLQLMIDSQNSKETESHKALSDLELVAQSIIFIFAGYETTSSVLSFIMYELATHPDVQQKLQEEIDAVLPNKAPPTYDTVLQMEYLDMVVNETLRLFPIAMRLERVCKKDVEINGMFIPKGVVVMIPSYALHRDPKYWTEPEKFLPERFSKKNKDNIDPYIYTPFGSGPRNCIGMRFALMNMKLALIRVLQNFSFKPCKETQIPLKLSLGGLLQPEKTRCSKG
Protocol: as §1, §2

[1] = cited from earlier work
[2] = system: rat liver microsomes (RLM); assay: Michaelis-Menten kinetics of dabrafenib metabolism (hydroxy-dabrafenib formation) in RLM; assay type: in vitro ADME; settings: RLM 0.5 mg/mL, dabrafenib 0.5–200 µM
Protocol: RLM was obtained according to established methods ([Wang et al., 2015]). Briefly, rat livers were weighed and homogenized in ice-cold phosphate buffer containing […] sucrose. The homogenate was centrifuged at 17,000 × g for 15 min at 4 °C. The supernatant was transferred to new tubes and recentrifuged at 17,000 × g for 15 min. The resulting supernatant was then ultracentrifuged at 100,000 × g for 60 min at 4 °C. The microsomal pellet was resuspended in ice-cold 0.01 mmol/L PBS (pH = 7.2–7.4). Protein concentration was determined using a Bradford assay kit (Thermo Scientific, Waltham, MA, United States).
(§3) The 200 µL incubation system contained 0.1 M Tris-HCl (pH = 7.6), 0.5 mg/mL RLM or HLM, 1 mM NADPH, and dabrafenib. […] Carbamazepine (100 ng/mL) was added as the IS. […] Hydroxy-dabrafenib concentrations were quantified via UPLC-MS/MS.
(§4) For kinetic studies, Michaelis-Menten curves were obtained using dabrafenib concentrations (0.5–200 µM) in RLM and HLM. Samples were processed as above. Curves were plotted (dabrafenib concentration vs. V) and fitted nonlinearly (Prism 9, GraphPad).
The concentrations of dabrafenib and hydroxy-dabrafenib were quantified by UPLC-MS/MS. […] Quantification transitions were m/z 520.10 → 307.20 for dabrafenib, m/z 536.20 → 323.10 for hydroxy-dabrafenib, and m/z 237.10 → 194.10 for IS.

CYP3A4.1 = biological target: T3, CYP3A4.1 (Homo sapiens, UniProt P08684); assay: In vitro enzyme kinetics assay using CYP3A4 baculosomes: CYP3A4.1; assay type: in vitro ADME; settings: dabrafenib 5–250 µM
T3 construct: made in house; host or cells: insect cells (baculovirus, pFastBac-Dual)
T3 sequence (P08684 whole entry): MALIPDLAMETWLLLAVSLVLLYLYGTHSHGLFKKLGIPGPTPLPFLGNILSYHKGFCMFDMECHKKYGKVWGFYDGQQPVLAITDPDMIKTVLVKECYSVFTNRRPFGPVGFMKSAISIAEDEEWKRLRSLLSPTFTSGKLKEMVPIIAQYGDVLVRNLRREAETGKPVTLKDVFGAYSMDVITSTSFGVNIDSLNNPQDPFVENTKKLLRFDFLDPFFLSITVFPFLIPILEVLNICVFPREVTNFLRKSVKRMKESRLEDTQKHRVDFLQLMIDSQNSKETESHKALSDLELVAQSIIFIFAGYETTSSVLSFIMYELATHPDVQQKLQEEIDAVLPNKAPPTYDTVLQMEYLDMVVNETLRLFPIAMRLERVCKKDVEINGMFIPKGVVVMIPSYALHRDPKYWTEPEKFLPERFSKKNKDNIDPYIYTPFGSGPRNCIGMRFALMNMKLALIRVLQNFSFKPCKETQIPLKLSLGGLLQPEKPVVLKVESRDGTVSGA
Protocol: as §1, §2

CYP3A4.8 = biological target: T4, CYP3A4.8 (Homo sapiens, UniProt P08684, R130Q); assay: In vitro enzyme kinetics assay using CYP3A4 baculosomes: CYP3A4.8; assay type: in vitro ADME
T4 construct: made in house; host or cells: insect cells (baculovirus, pFastBac-Dual)
T4 sequence (P08684 whole entry R130Q): as the sequence (P08684 whole entry) above, with R130Q counted along it
Protocol: as §1, §2

[3] = system: human liver microsomes (HLM); assay: Michaelis-Menten kinetics of dabrafenib metabolism (hydroxy-dabrafenib formation) in HLM; assay type: in vitro ADME; settings: HLM 0.5 mg/mL, dabrafenib 0.5–200 µM
Protocol: as §3, §4
The concentrations of dabrafenib and hydroxy-dabrafenib were quantified by UPLC-MS/MS. Chromatographic separation was performed on a Waters Acquity UPLC BEH C18 column (2.1 mm × 50 mm, 1.7 µm particle size) maintained at 40 °C. The mobile phase consisted of 0.1% aqueous formic acid (A) and acetonitrile (B), delivered at 0.3 mL/min with the following gradient program: 90% A (0–0.15 min), linear transition to 10% A (0.15–0.8 min), 10% A (0.8–1.5 min), and return to 90% A (1.5–2 min). Total run time was 2 min. Detection employed a Waters Xevo TQS triple quadrupole mass spectrometer (Milford, MA, United States) operated in positive-ion multiple reaction monitoring mode. Quantification transitions were m/z 520.10 → 307.20 for dabrafenib, m/z 536.20 → 323.10 for hydroxy-dabrafenib, and m/z 237.10 → 194.10 for IS.

T1 sequence (P08684 whole entry L22V): as the sequence (P08684 whole entry) above, with L22V counted along it

increase of relative clearance vs CYP3A4.1 (CYP3A4.28): 26.67%
Vmax (CYP3A4.28; dabrafenib 5–250 µM): 0.362 ± 0.026 pmoL/L/min/μg CYP3A4
Km [2]: 14.6 ± 3.08 µM
Vmax (CYP3A4.1): 0.266 ± 0.007 pmoL/L/min/μg CYP3A4
decrease of relative clearance vs CYP3A4.1 (CYP3A4.8): 66.67%
Vmax (CYP3A4.8; dabrafenib 5–250 µM): 0.247 ± 0.030 pmoL/L/min/μg CYP3A4
Km [3]: 3.5 ± 0.56 µM
SMILES: CC(C)(C)c1nc(-c2cccc(NS(=O)(=O)c3c(F)cccc3F)c2F)c(-c2ccnc(N)n2)s1 [Dabrafenib]
metabolic activity toward dabrafenib (in words) (CYP3A4.20): nearly complete loss of activity; also recorded: lack catalytic activity
Cmax ([1]; single 150 mg oral dose, clinical, ref Puszkiel et al., 2019, Balakirouchenane et al., 2021): 2,160 ng/mL
oral bioavailability (F) ([1]; single-dose administration, ref Denton et al., 2013): 95%
Vmax [2]: 0.14 ± 0.01 pmol/L/min/µg
Vmax [3]: 0.16 ± 0.001 pmol/L/min/µg
